Test results as given in patent US6372926B1, “17-side chain alkynyl-and 20-oxopregna-derivatives of vitamin D, methods for their production and pharmaceutical compositions thereof” (Research Institute for Medicine and Chemistry, priority 1997, dated 2002).

How the values were obtained:
glutocorticoid receptor = target: T1, glutocorticoid receptor (Homo sapiens, UniProt P04150); conditions: in contrast to RU 486; literature report; cited from earlier work
T1 sequence (P04150 1-777): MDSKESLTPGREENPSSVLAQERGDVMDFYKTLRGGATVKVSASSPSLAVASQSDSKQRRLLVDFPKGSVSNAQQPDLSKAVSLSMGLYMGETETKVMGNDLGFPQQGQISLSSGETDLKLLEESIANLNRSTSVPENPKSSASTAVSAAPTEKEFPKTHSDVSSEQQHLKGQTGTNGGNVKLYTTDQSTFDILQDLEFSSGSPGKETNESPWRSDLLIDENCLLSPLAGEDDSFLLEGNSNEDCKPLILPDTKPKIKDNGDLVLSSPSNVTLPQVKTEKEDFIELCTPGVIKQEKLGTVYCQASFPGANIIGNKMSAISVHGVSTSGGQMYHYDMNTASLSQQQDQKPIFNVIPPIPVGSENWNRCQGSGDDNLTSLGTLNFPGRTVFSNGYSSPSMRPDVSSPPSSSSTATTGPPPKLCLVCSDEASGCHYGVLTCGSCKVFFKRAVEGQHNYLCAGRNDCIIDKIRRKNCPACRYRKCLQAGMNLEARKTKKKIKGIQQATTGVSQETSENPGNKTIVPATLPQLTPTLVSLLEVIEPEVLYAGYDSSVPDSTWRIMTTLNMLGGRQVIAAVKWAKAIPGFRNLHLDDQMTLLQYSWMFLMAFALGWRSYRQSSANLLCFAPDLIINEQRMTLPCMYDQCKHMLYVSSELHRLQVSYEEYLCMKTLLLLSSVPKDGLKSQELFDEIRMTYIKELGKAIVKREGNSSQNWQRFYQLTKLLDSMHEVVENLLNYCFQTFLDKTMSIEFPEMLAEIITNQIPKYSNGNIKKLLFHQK

[1] = tested on: human breast cancer cells (T47D); conditions: Endocrine Society 1994 Abstract No. 1744; cited from earlier work
progesterone activity = assay: anti-progesterone activity (applicant's finding); conditions: evidenced by antifertility activity, anti-progesterone assay and inhibition of growth of T47D and MCF-7 cell lines; no data given
progesterone receptor = target: T2, progesterone receptor (Homo sapiens, UniProt P06401); conditions: as reported by DeLuca and coworkers; cited from earlier work
T2 sequence (P06401 1-933): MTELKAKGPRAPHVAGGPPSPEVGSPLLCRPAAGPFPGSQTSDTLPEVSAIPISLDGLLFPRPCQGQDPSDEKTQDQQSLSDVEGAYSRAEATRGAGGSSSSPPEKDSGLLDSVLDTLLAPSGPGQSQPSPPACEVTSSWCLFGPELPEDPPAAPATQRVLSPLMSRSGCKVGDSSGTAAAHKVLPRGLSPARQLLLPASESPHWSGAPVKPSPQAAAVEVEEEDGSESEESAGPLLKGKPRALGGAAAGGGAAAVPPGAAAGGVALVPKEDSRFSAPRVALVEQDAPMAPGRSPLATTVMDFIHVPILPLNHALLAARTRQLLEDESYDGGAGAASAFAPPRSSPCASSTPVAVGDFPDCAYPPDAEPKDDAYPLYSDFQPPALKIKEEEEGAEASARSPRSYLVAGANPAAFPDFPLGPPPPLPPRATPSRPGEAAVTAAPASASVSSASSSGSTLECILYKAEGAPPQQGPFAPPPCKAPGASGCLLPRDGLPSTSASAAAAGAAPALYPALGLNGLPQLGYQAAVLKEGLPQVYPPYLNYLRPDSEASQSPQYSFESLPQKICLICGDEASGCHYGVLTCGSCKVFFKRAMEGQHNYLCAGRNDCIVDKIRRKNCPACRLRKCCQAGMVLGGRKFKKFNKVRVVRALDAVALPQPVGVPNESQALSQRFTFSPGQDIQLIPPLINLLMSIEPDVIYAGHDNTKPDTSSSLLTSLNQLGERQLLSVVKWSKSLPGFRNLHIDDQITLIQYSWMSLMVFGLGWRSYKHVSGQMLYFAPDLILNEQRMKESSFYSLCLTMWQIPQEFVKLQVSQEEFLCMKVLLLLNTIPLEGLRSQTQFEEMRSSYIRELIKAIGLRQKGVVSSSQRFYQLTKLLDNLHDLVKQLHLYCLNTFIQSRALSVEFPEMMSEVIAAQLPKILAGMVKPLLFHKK

Structure (SMILES)	binding to the glucocorticoid receptor (glutocorticoid receptor)	suppression of in vitro growth of human breast cancer cells (T47D) [1]	antagonism of progesterone activity (progesterone activity)	ability to bind to the progesterone receptor (progesterone receptor)
C=C1CC[C@H](O)C/C1=C/C=C1\CCC[C@@]2(C)[C@@H](C(C)=O)CC[C@H]12 [20-oxopregnacalciferol]	not to bind	suppress in vitro growth	–	–
C=C1C(=CC=C2CCCC3(C)C(C(C)=O)CCC23)CC(O)CC1O (stereo not drawn) [1α-Hydroxy-20-oxopregna-calciferol, 1α,3β-Dihydroxy-20-oxo-9,10-secopregna-5(Z),7,10(19)-triene]	–	–	anti-progestational activity	not to have such binding effect
